Reference: US20250074888A1, “PYRIDAZINE DERIVATIVES AS MODULATORS OF NLRP3 INFLAMMASOME AND RELATED METHODS” (Neumora Therapeutics, Inc., priority 2021, published 2025)

Legend:
NLRP3 inflammasome = NLRP3 inflammasome (Homo sapiens, UniProt Q96P20); experiment: NLRP3 inflammasome activation in THP1 macrophages (LPS priming, nigericin), IL-1β AlphaLISA; type: cell-based; conditions: PMA-differentiated THP1, LPS 20 ng/ml 3 hrs, compound 1 hr, Nigericin 6.7 uM 3 hrs, supernatant
IL-6 = IL-6 release from LPS-primed, nigericin-treated THP1 macrophages, Hu IL-6 AlphaLISA; type: cell-based; conditions: Homo sapiens, THP-1; PMA-differentiated THP1, LPS 20 ng/ml 3 hrs, compound 1 hr, Nigericin 6.7 uM 3 hrs, supernatant

Sequence of NLRP3 inflammasome (Q96P20 whole entry): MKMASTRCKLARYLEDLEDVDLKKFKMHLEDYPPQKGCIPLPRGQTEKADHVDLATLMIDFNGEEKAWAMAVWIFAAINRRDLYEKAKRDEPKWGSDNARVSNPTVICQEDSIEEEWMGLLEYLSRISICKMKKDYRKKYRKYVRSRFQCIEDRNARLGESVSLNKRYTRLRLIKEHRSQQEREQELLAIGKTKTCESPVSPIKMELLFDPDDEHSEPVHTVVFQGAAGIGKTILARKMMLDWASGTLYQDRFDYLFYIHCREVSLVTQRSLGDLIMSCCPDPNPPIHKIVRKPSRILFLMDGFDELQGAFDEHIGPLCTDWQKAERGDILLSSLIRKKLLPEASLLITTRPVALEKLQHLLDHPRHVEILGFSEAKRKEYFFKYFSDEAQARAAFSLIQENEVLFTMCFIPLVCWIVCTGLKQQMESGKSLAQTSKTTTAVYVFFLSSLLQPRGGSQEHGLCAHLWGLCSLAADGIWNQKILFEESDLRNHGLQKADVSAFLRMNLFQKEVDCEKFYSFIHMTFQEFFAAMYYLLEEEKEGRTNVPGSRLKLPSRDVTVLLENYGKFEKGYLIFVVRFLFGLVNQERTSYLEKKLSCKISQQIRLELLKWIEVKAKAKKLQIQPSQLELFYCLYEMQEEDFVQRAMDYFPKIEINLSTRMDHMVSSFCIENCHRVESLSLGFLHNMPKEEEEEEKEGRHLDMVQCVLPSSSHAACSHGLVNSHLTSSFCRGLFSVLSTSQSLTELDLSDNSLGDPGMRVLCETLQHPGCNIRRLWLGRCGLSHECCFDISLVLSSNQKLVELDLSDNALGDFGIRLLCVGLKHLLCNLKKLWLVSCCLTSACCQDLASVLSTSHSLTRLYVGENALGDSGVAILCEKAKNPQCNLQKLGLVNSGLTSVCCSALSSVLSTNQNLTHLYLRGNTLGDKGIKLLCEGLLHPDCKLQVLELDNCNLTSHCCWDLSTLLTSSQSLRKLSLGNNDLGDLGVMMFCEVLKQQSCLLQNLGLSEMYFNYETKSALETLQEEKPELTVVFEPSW

IC50 (NLRP3 inflammasome) | IC50 (IL-6) | Structure (SMILES)
100 to 500 nM | > 10000 nM | Cc1c(-c2ccc(N[C@@H]3CCCN(C)C3)nn2)ccc(C(F)(F)F)c1C [compound 161]
10 to 50 nM | > 10000 nM | Cc1cc(-c2nnc(N[C@@H]3CCCN(C)C3)cc2C)ccc1Cl [compound 162]
> 1000 nM | > 10000 nM | Cc1cc(-c2cc(C)c(N[C@@H]3CCCN(C)C3)nn2)ccc1Cl [compound 163]
> 1000 nM | > 10000 nM | COc1cc(F)cc(C)c1-c1ccc(N[C@@H]2CCCN(C)C2)nn1 [compound 164]
≤ 10 nM | > 10000 nM | Cc1cc(N[C@@H]2CCCN(C)C2)nnc1-c1ccc(C(F)(F)F)cc1C(F)F [compound 165]
10 to 50 nM | > 10000 nM | Cc1cc(-c2ccc(C(F)(F)F)cc2C(F)F)nnc1N[C@@H]1CCCN(C)C1 [compound 166]
100 to 500 nM | > 10000 nM | CCN(c1cc(C)c(-c2ccc(C(F)(F)F)cc2)nn1)[C@@H]1CCCN(C)C1 [compound 167]
10 to 50 nM | 5000 to 10000 nM | Cc1cc(N[C@@H]2CCCN(C)C2)nnc1-c1ccc(Cl)cc1C#N [compound 168]
10 to 50 nM | > 10000 nM | Cc1cc(N[C@@H]2CCCN(C)C2)nnc1-c1ccc(Cl)cc1C(F)(F)F [compound 169]
10 to 50 nM | > 10000 nM | Cc1cc(-c2ccc(Cl)cc2C(F)(F)F)nnc1N[C@@H]1CCCN(C)C1 [compound 170]
≤ 10 nM | > 10000 nM | Cc1cc(N[C@@H]2CCCN(C)C2)nnc1-c1ccc(Cl)cc1Cl [compound 171]
> 1000 nM | > 10000 nM | COc1cc(N[C@@H]2CCCN(C)C2)nnc1-c1ccc(C(F)(F)F)cc1C [compound 172]
> 1000 nM | > 10000 nM | Cc1cc(-c2ccc(Cl)cc2C#N)nnc1N[C@@H]1CCCN(C)C1 [compound 173]

More lines, now with the values behind:

Structure (SMILES) | IC50 (NLRP3 inflammasome) | IC50 (IL-6)
Cc1cc(N[C@@H]2CCCN(C)C2)nnc1-c1ccc(Cl)c(F)c1 [compound 145] | 50 to 100 nM | > 10000 nM
CCN1C[C@H](F)C[C@@H](Nc2cc(C)c(-c3ccc(C(F)(F)F)cc3)nn2)C1 [compound 146] | ≤ 10 nM | 5000 to 10000 nM
Cc1cc(-c2ccc(Cl)c(F)c2)nnc1N[C@@H]1CCCN(C)C1 [compound 147] | > 1000 nM | 5000 to 10000 nM
CN1CCC[C@@H](Nc2nnc(-c3ccc(F)cc3)cc2C(F)(F)F)C1 [compound 148] | > 1000 nM | > 10000 nM
Cc1cc(-c2ccc(Cl)cc2F)nnc1N[C@@H]1CCCN(C)C1 [compound 149] | 100 to 500 nM | 5000 to 10000 nM
CCN1C[C@H](F)C[C@@H](Nc2cc(C)c(-c3ccc(F)cc3)nn2)C1 [compound 150] | > 1000 nM | > 10000 nM
CCN1C[C@H](F)C[C@@H](Nc2cc(C)c(-c3ccc(Cl)cc3)nn2)C1 [compound 151] | > 1000 nM | 1000 to 5000 nM
Cc1cc(N[C@@H]2C[C@@H](F)CN(C(C)C)C2)nnc1-c1ccc(Cl)cc1 [compound 152] | 10 to 50 nM | > 10000 nM
Cc1cc(N[C@@H]2CCCN(C)C2)nnc1-c1ccc(Cl)cc1F [compound 153] | > 1000 nM | 5000 to 10000 nM
Cc1cc(F)ccc1-c1cc(F)c(N[C@@H]2CCCN(C)C2)nn1 [compound 154] | 100 to 500 nM | > 10000 nM
CCN1CCC[C@@H](Nc2cc(C)c(-c3ccc(Cl)cc3)nn2)C1 [compound 155] | ≤ 10 nM | > 10000 nM
Cc1cc(N[C@@H]2CCCN(C(C)C)C2)nnc1-c1ccc(Cl)cc1 [compound 156] | ≤ 10 nM | > 10000 nM
Cc1cc(N[C@@H]2CCCN(C)C2)nnc1-c1ccc(C(F)F)cc1 [compound 157] | 10 to 50 nM | > 10000 nM
Cc1cc(C(F)(F)F)ccc1-c1cc(O)c(N[C@@H]2CCCN(C)C2)nn1 [compound 158] | 100 to 500 nM | 5000 to 10000 nM
Cc1cc(N[C@@H]2CCCN(C)C2)nnc1-c1ccccc1C(F)F [compound 159] | 500 to 1000 nM | 5000 to 10000 nM
Cc1cc(-c2ccccc2C(F)F)nnc1N[C@@H]1CCCN(C)C1 [compound 160] | 500 to 1000 nM | 1000 to 5000 nM
